Source: patent publication US11708348B2, “Protease inhibitors for treatment of coronavirus infections” (The Scripps Research Institute, priority 2021, dated 2023)
Counter-ions that a name gives are not always drawn. Like-named read-outs stand apart in the source and are kept apart here.

Test system: SARS-CoV-2 strain USA-WA1/2020
Assay: microbe, parasite or virus in culture
Assay type: cell-based
Conditions: read-out: EC50, uM (Hela)
[1] = Severe acute respiratory syndrome coronavirus 2, HeLa-ACE2, 24 h, HeLa-ACE2 cells, SARS-CoV-2 infection, 24 h, class symbols
[2] = Severe acute respiratory syndrome coronavirus 2, HeLa-ACE2, 24 h
[3] = Severe acute respiratory syndrome coronavirus 2, HeLa-ACE2, 24 h, HeLa-ACE2 cells, SARS-CoV-2 infection, 24 h

Compound	EC50 [1]	also measured
CC[C@@H](O)C(=O)NC(CC1(C)CC1)C(=O)N[C@@H](C[C@@H]1CCNC1=O)C(=O)COC(F)(F)F (stereo partly drawn) [Compound 372, (2R)-2-hydroxy-N-(3-(1-methylcyclopropyl)-1-oxo-1-(((S)-3-oxo-l-((S)-2-oxopyrrolidin-3-yl)-4-(trifluoromethoxy)butan-2-yl)amino)propan-2-yl)butanamide]	0.2 to 0.5 µM	
CC(C)C[C@H](NC(=O)C(=O)Nc1ccccc1F)C(=O)N[C@@H](CCCCN)C(=O)COc1c(F)c(F)cc(F)c1F [Compound 142, N^1—((S)-1-(((S)-7-amino-2-oxo-1-(2,3,5,6-tetrafluorophenoxy)heptan-3-yl)amino)-4-methyl-1-oxopentan-2-yl)-N^2-(2-fluorophenyl)oxalamide hydrochloride]		EC50 [2]: < 0.05 µM
CC(C)C[C@H](NC(=O)C(=O)NC1CCC1)C(=O)N[C@@H](C[C@@H]1CCNC1=O)C(=O)COC(F)(F)F [Compound 221, N1-cyclobutyl-N2-((S)-4-methyl-1-oxo-1-(((S)-3-oxo-1-((S)-2-oxopyrrolidin-3-yl)-4-(trifluoromethoxy)butan-2-yl)amino)pentan-2-yl)oxalamide]	< 0.05 µM	
CC(C)C[C@H](NC(=O)OCc1ccc(F)cc1)C(=O)N[C@@H](C[C@@H]1CCNC1=O)C(=O)COc1c(F)c(F)cc(F)c1F [Compound 23, 4-fluorobenzyl ((S)-4-methyl-1-oxo-1-(((S)-3-oxo-1-((S)-2-oxopyrrolidin-3-yl)-4-(2,3,5,6-tetra-fluorophenoxy)butan-2-yl)amino)pentan-2-yl)carbamate]	0.2 to 0.5 µM	
O=C(NCC(F)(F)F)C(=O)NC(CC1CCOCC1)C(=O)N[C@@H](C[C@@H]1CCNC1=O)C(=O)COC(F)(F)F (stereo partly drawn) [Compound 267, N1-(1-oxo-1-(((S)-3-oxo-1-((S)-2-oxopyrrolidin-3-yl)-4-(trifluoromethoxy)butan-2-yl)amino)-3-(tetrahydro-2H-pyran-4-yl)propan-2-yl)-N2-(2,2,2-trifluoroethyl)-oxalamide]	0.5 to 1 µM	
CC(C)C[C@H](NC(=O)C(=O)Nc1ccccc1F)c1cn([C@@H](C[C@@H]2CCNC2=O)C(=O)COc2c(F)c(F)cc(F)c2F)nn1 [Compound 197, N1-(2-fluorophenyl)-N2-((S)-3-methyl-1-(1-((S)-3-oxo-1-((S)-2-oxopyrrolidin-3-yl)-4-(2,3,5,6-tetrafluorophenoxy)butan-2-yl)-1H-1,2,3-triazol-4-yl)butyl)oxalamide]	0.5 to 1 µM	
[2H]C([2H])([2H])C([2H])([2H])C([2H])([2H])C([2H])([2H])C(=O)N1CC2(CC2)C[C@H]1C(=O)N[C@@H](C[C@@H]1CCNC1=O)C(=O)COC(F)(F)F [Compound 732, (S)-N-((S)-3-oxo-1-((S)-2-oxopyrrolidin-3-yl)-4-(trifluoromethoxy)butan-2-yl)-5-(pentanoyl-d9)-5-azaspiro[2.4]heptane-6-carboxamide]		EC50 [3]: < 0.05 µM
CC(C)C[C@H](NC(=O)C(=O)NC1(C)CCNC1)C(=O)N[C@@H](C[C@@H]1CCNC1=O)C(=O)COC(F)(F)F (stereo partly drawn) [Compound 252, N1-((S)-4-methyl-1-oxo-1-(((S)-3-oxo-1-((S)-2-oxopyrrolidin-3-yl)-4-(trifluoromethoxy)butan-2-yl)amino)pentan-2-yl)-N2-(3-methylpyrrolidin-3-yl)oxalamide]	0.2 to 0.5 µM	
CC(C)C[C@H](NC(=O)C(=O)Nc1ccccc1F)C(=O)N[C@@H](CCS(C)(=O)=O)C(=O)COc1c(F)c(F)cc(F)c1F [Compound 655, N1-(2-fluorophenyl)-N2-((S)-4-methyl-1-(((S)-5-(methylsulfonyl)-2-oxo-1-(2,3,5,6-tetrafluorophenoxy)pentan-3-yl)amino)-1-oxopentan-2-yl)oxalamide]		EC50 [3]: 0.5 to 1 µM
CC(C)(F)CCC(=O)N1CC2(CC2)C[C@H]1C(=O)N[C@@H](C[C@@H]1CCNC1=O)C(=O)COC(F)(F)F [Compound 624, (S)-5-(4-fluoro-4-methylpentanoyl)-N-((S)-3-oxo-1-((S)-2-oxopyrrolidin-3-yl)-4-(trifluoromethoxy)butan-2-yl)-5-azaspiro[2.4]heptane-6-carboxamide]		EC50 [3]: 0.05 to 0.2 µM
CC(C)(F)c1cc(C(=O)N[C@@H](CC2CC2)C(=O)N[C@@H](C[C@@H]2CCNC2=O)C(=O)COC(F)(F)F)no1 [Compound 490, N-((S)-3-cyclopropyl-1-oxo-1-(((S)-3-oxo-1-((S)-2-oxopyrrolidin-3-yl)-4-(trifluoromethoxy)butan-2-yl)amino)propan-2-yl)-5-(2-fluoropropan-2-yl)isoxazole-3-carboxamide]		EC50 [3]: < 0.05 µM
CC(C)C[C@H](NC(=O)C(=O)Nc1ccc(F)c(F)c1)C(=O)N[C@@H](C[C@@H]1CCNC1=O)C(=O)COc1c(F)c(F)cc(F)c1F [Compound 53, N1-(3,4-difluorophenyl)-N2-((S)-4-methyl-1-oxo-1-(((S)-3-oxo-1-((S)-2-oxopyrrolidin-3-yl)-4-(2,3,5,6-tetrafluorophenoxy)butan-2-yl)amino)pentan-2-yl)oxalamide]	0.05 to 0.2 µM	
CC(C)C[C@@H](O)C(=O)N1CCC[C@H]1C(=O)N[C@@H](C[C@@H]1CCNC1=O)C(=O)COC(F)(F)F [Compound 696, (S)-1-((R)-2-hydroxy-4-methylpentanoyl)-N-((S)-3-oxo-1-((S)-2-oxopyrrolidin-3-yl)-4-(trifluoromethoxy)butan-2-yl)pyrrolidine-2-carboxamide]		EC50 [2]: 0.05 to 0.2 µM
CCc1cccc(CC)c1NC(=O)C(=O)N[C@@H](CC(C)C)C(=O)N[C@@H](C[C@@H]1CCNC1=O)C(=O)COC(F)(F)F [Compound 167, N1-(2,6-diethylphenyl)-N2-((S)-4-methyl-1-oxo-1-(((S)-3-oxo-1-((S)-2-oxopyrrolidin-3-yl)-4-(trifluoromethoxy)butan-2-yl)amino)pentan-2-yl)oxalamide]	< 0.05 µM	
CC(C)(C)NC(=O)C(=O)N1CC2(CCCCC2)CC1C(=O)N[C@@H](C[C@@H]1CCNC1=O)C(=O)COC(F)(F)F (stereo partly drawn) [Compound 531, 2-(2-(tert-butylamino)-2-oxoacetyl)-N-((S)-3-oxo-1-((S)-2-oxopyrrolidin-3-yl)-4-(trifluoromethoxy)butan-2-yl)-2-azaspiro[4.5]decane-3-carboxamide]		EC50 [3]: < 0.05 µM
COC(OC)C(=O)N1CC2(CC2)C[C@H]1C(=O)N[C@@H](C[C@@H]1CCNC1=O)C(=O)COC(F)(F)F [Compound 340, (S)-5-(2,2-dimethoxyacetyl)-N—((S)-3-oxo-1-((S)-2-oxopyrrolidin-3-yl)-4-(trifluoromethoxy)butan-2-yl)-5-azaspiro[2.4]heptane-6-carboxamide]	0.2 to 0.5 µM	
O=C1NCC[C@H]1C[C@H](NC(=O)[C@@H]1CC2(CC2)CN1C(=O)C1(O)CCC(C(F)(F)F)CC1)C(=O)COC(F)(F)F (stereo partly drawn) [Compound 649, (S)-5-(l-hydroxy-4-(trifluoromethyl)cyclohexane-1-carbonyl)-N-((S)-3-oxo-1-((S)-2-oxopyrrolidin-3-yl)-4-(trifluoromethoxy)butan-2-yl)-5-azaspiro[2.4]heptane-6-carboxamide]		EC50 [3]: 0.05 to 0.2 µM
O=C(Nc1ccccc1F)C(=O)N1C[C@@H]2CCC[C@@H]2[C@H]1C(=O)N[C@@H](C[C@@H]1CCNC1=O)C(=O)COC(F)(F)F [Compound 256, (1S,3aR,6aS)-2-(2-((2-fluorophenyl)amino)-2-oxoacetyl)-N—((S)-3-oxo-1-((S)-2-oxopyrrolidin-3-yl)-4-(trifluoromethoxy)butan-2-yl)octahydrocyclopenta[c]pyrrole-1-carboxamide]	< 0.05 µM	
[2H]C([2H])([2H])C([2H])(C([2H])([2H])[2H])C([2H])([2H])C([2H])([2H])C(=O)N1CC2(CC2)C[C@H]1C(=O)N[C@@H](C[C@@H]1CCNC1=O)C(=O)COC(F)(F)F [Compound 734, (S)-5-(4-(methyl-d3)pentanoyl-2,2,3,3,4,5,5,5-d8)-N-((S)-3-oxo-1-((S)-2-oxopyrrolidin-3-yl)-4-(trifluoromethoxy)butan-2-yl)-5-azaspiro[2.4]heptane-6-carboxamide]		EC50 [3]: < 0.05 µM
CC(C)C[C@@H](O)C(=O)N1C[C@H]2[C@@H]([C@H]1C(=O)N[C@@H](C[C@@H]1CCNC1=O)C(=O)COC(F)(F)F)C2(C)C [Compound 361, (1R,2S,5S)-3-((R)-2-hydroxy-4-methylpentanoyl)-6,6-dimethyl-N-((S)-3-oxo-1-((S)-2-oxopyrrolidin-3-yl)-4-(trifluoromethoxy)butan-2-yl)-3-azabicyclo-[3.1.0]hexane-2-carboxamide]	< 0.05 µM	
COc1cccc(C)c1NC(=O)C(=O)N[C@@H](CC(C)C)C(=O)N[C@@H](C[C@@H]1CCNC1=O)C(=O)COC(F)(F)F [Compound 165, N1-(2-methoxy-6-methylphenyl)-N2-((S)-4-methyl-1-oxo-1-(((S)-3-oxo-1-((S)-2-oxopyrrolidin-3-yl)-4-(trifluoromethoxy)butan-2-yl)amino)pentan-2-yl)oxalamide]	< 0.05 µM	
CC(C)C[C@H](NC(=O)C(=O)NC1CC2(C1)CC(F)(F)C2)C(=O)N[C@@H](C[C@@H]1CCNC1=O)C(=O)COC(F)(F)F [Compound 241, N1-(6,6-difluorospiro-[3.3]heptan-2-yl)-N2-((S)-4-methyl-1-oxo-1-(((S)-3-oxo-1-((S)-2-oxopyrrolidin-3-yl)-4-(trifluoromethoxy)butan-2-yl)amino)pentan-2-yl)oxalamide]	< 0.05 µM	
O=C1NCC[C@H]1C[C@H](NC(=O)[C@@H]1CC2(CC2)CN1C(=O)C(O)CC(C(F)(F)F)C(F)(F)F)C(=O)COC(F)(F)F (stereo partly drawn) [Compound 389, (6S)-N-((S)-3-oxo-1-((S)-2-oxopyrrolidin-3-yl)-4-(trifluoromethoxy)butan-2-yl)-5-(5,5,5-trifluoro-2-hydroxy-4-(trifluoromethyl)-pentanoyl)-5-azaspiro[2.4]heptane-6-carboxamide]	< 0.05 µM	
COc1cccc2[nH]c(C(=O)N[C@@H](CC(C)C)C(=O)N[C@@H](C[C@@H]3CCNC3=O)C(=O)COc3c(F)cccc3F)cc12 [Compound 2]		EC50 (HeLa-ACE2 cells, SARS-CoV-2 infection, 24 h, class symbols): 0.5 to 1 µM
